Reference: US10940139B2, “Compounds that interact with the Ras superfamily for the treatment of cancers, inflammatory diseases, rasopathies, and fibrotic disease” (Shy Therapeutics LLC, priority 2017, dated 2021)

Legend:
[1] = test system: TNFα production in RAW 264.7 macrophage cell line; assay: Mouse TNF alpha quantification assay (LPS-stimulated macrophages, ELISA); assay type: cell-based; details: RAW264.7, RAW 264.7 murine leukemia virus transformed macrophage cell lines, LPS stimulation, read-out: TNF-α % Inhibition at 30 μM
[2] = test system: IL6 production in RAW 264.7 macrophage cell line; assay: Mouse IL6 quantification assay (LPS-stimulated macrophages, ELISA); assay type: cell-based; details: RAW264.7, RAW 264.7 murine leukemia virus transformed macrophage cell lines, LPS stimulation, read-out: IL-6 % Inhibition at 30 μM

Compound	inhibition at 30 µM [1] [%]	inhibition at 30 µM [2] [%]
COc1ccc(CCN(C)C(=O)c2csc3nc(-c4ccccn4)nc(N4CCOCC4)c23)cn1 [drawing 2173]	0	26 to 50
COc1ncc(CCNC(=O)c2csc3nc(-c4ccccn4)nc(N4CCOCC4)c23)cn1 [drawing 2175]	0	1 to 25
O=C(NCCc1cncs1)c1csc2nc(-c3ccccn3)nc(N3CCOCC3)c12 [drawing 2176]	0	1 to 25
CC(C)(C(=O)Nc1ccnc(-c2ccccn2)n1)c1ccc(C#N)cc1 [drawing 2177]	0	1 to 25
CC(C)(C(=O)Nc1nc(-c2ccccn2)nc2sccc12)c1ccc(C#N)cc1 [drawing 2178]	1 to 25	76 to 100
O=C(c1csc2c(O)nc(-c3ccccn3)nc12)N1CCN(c2cccc(F)c2)CC1 [drawing 2179]	0	76 to 100
O=C(c1csc2c(O)nc(-c3ccccn3)nc12)N1CCN(c2ccc(F)cc2)CC1 [drawing 2180]	0	26 to 50
N#Cc1cccc(N2CCN(C(=O)c3csc4c(O)nc(-c5ccccn5)nc34)CC2)c1 [drawing 2181]	0	51 to 75
N#Cc1ccc(N2CCN(C(=O)c3csc4c(O)nc(-c5ccccn5)nc34)CC2)cc1 [drawing 2182]	0	26 to 50
COc1cc(OC)cc(N2CCN(C(=O)c3csc4c(O)nc(-c5ccccn5)nc34)CC2)c1 [drawing 2183]	1 to 25	26 to 50
COc1ccc(N2CCN(C(=O)c3csc4c(O)nc(-c5ccccn5)nc34)CC2)c(OC)c1 [drawing 2184]	0	76 to 100
O=C(c1csc2c(O)nc(-c3ccccn3)nc12)N1CCN(c2ccc(F)cc2F)CC1 [drawing 2185]	0	76 to 100
CC1CN(c2ccccc2)CCN1C(=O)c1csc2c(O)nc(-c3ccccn3)nc12 (stereo not drawn) [drawing 2186]	26 to 50	76 to 100
O=C(c1csc2c(O)nc(-c3ccccn3)nc12)N1CCN(Cc2ccccc2)CC1 [drawing 2187]	0	76 to 100
COc1cccc(CN2CCN(C(=O)c3csc4c(O)nc(-c5ccccn5)nc34)CC2)c1 [drawing 2188]	0	51 to 75
O=C(c1csc2c(O)nc(-c3ccccn3)nc12)N1CCN(Cc2ccc(O)cc2)CC1 [drawing 2189]	1 to 25	1 to 25
O=C(c1csc2c(O)nc(-c3ccccn3)nc12)N1CCN(Cc2ccc(O)c(Cl)c2)CC1 [drawing 2190]	1 to 25	76 to 100
O=C(c1csc2c(O)nc(-c3ccccn3)nc12)N1CCOC(c2ccccc2)C1 (stereo not drawn) [drawing 2191]	0	51 to 75
COc1ccccc1C1CN(C(=O)c2csc3c(O)nc(-c4ccccn4)nc23)CCO1 (stereo not drawn) [drawing 2192]	51 to 75	76 to 100
COc1ccc(C2CN(C(=O)c3csc4c(O)nc(-c5ccccn5)nc34)CCO2)cc1 (stereo not drawn) [drawing 2193]	1 to 25	76 to 100
O=C(c1csc2c(O)nc(-c3ccccn3)nc12)N1CCOC(c2ccccc2Cl)C1 (stereo not drawn) [drawing 2194]	1 to 25	76 to 100

Compound	inhibition at 30 µM [1] [%]	inhibition at 30 µM [2] [%]
O=C(c1csc2c(O)nc(-c3ccccn3)nc12)N1CCOC(Cc2ccccc2)C1 (stereo not drawn) [drawing 2195]	0	76 to 100
COc1ccccc1C1CN(C(=O)c2csc3c(O)nc(-c4ccccn4)nc23)CCN1 (stereo not drawn) [drawing 2196]	0	26 to 50
COc1cccc(C2CN(C(=O)c3csc4c(O)nc(-c5ccccn5)nc34)CCN2)c1 (stereo not drawn) [drawing 2197]	1 to 25	76 to 100
COc1ccc(C2CN(C(=O)c3csc4c(O)nc(-c5ccccn5)nc34)CCN2)cc1 (stereo not drawn) [drawing 2198]	0	51 to 75
Cc1ccccc1C1CN(C(=O)c2csc3c(O)nc(-c4ccccn4)nc23)CCN1 (stereo not drawn) [drawing 2199]	1 to 25	76 to 100
O=C(c1csc2c(O)nc(-c3ccccn3)nc12)N1CCNC(c2ccccc2F)C1 (stereo not drawn) [drawing 2200]	1 to 25	76 to 100
Cn1cc(C2CN(C(=O)c3csc4c(O)nc(-c5ccccn5)nc34)CCN2)cn1 (stereo not drawn) [drawing 2201]	76 to 100	76 to 100
O=C(c1csc2c(O)nc(-c3ccccn3)nc12)N1CCNC(Cc2ccccc2)C1 (stereo not drawn) [drawing 2202]	1 to 25	76 to 100
COc1ccnc(-c2nc(O)c3c(C#N)csc3n2)c1 [drawing 2203]	0	1 to 25
O=C(NCCc1ccc(O)c(O)c1)c1csc2nc(-c3ccccn3)nc(N3CCOCC3)c12 [drawing 2204]	0	1 to 25
COCCCCNC(=O)c1csc2nc(-c3ccccn3)nc(N3CCOCC3)c12 [drawing 2205]	1 to 25	1 to 25
COCCN(CCOC)c1nc(-c2ccccn2)nc2scc(C(=O)NCCc3ccc(OC)nc3)c12 [drawing 2206]	0	1 to 25
COc1ccc2c(c1)CCC2C(=O)Nc1ccnc(-c2ccccn2)n1 (stereo not drawn) [drawing 2207]	0	26 to 50
N#Cc1ccc(COCC(=O)Nc2ccnc(-c3ccccn3)n2)cc1 [drawing 2208]	1 to 25	1 to 25
Cc1cnc(-c2ccccn2)nc1NC(=O)C(C)c1ccc(C#N)cc1 (stereo not drawn) [drawing 2209]	1 to 25	1 to 25
CC(C(=O)Nc1nc(-c2ccccn2)nc2sccc12)c1ccc(C#N)cc1 (stereo not drawn) [drawing 2210]	0	51 to 75
N#Cc1ccc(COCC(=O)Nc2nc(-c3ccccn3)nc3sccc23)cc1 [drawing 2211]	1 to 25	51 to 75
COc1cnc(CN)[nH]c1=O [drawing 2212]	1 to 25	0
COc1ccc(N2CCN(C(=O)c3csc4c(O)nc(-c5ccccn5)nc34)CC2)cc1O [drawing 2213]	0	26 to 50
O=C(c1csc2c(O)nc(-c3ccccn3)nc12)N1CCN(c2ccc(O)c(Cl)c2)CC1 [drawing 2214]	0	26 to 50
CC(c1ccccc1)N1CCN(C(=O)c2csc3c(O)nc(-c4ccccn4)nc23)CC1 (stereo not drawn) [drawing 2215]	0	51 to 75

Compound	inhibition at 30 µM [1] [%]	inhibition at 30 µM [2] [%]
O=C(c1csc2c(O)nc(-c3ccccn3)nc12)N1CCNC(c2ccccc2Cl)C1 (stereo not drawn) [drawing 2216]	0	51 to 75
O=C(c1csc2c(O)nc(-c3ccccn3)nc12)N1CCNC(c2ccc(F)cc2)C1 (stereo not drawn) [drawing 2217]	0	1 to 25
O=C(c1csc2c(O)nc(-c3ccccn3)nc12)N1CCNC(c2ccc(O)cc2)C1 (stereo not drawn) [drawing 2218]	0	1 to 25
COCCCCNC(=O)c1csc2nc(-c3ccccn3)nc(N3CCS(=O)(=O)CC3)c12 [drawing 2219]	0	26 to 50
Cc1cnc(-c2ccccn2)nc1NC(=O)C1CCCc2cc(C#N)ccc21 (stereo not drawn) [drawing 2220]	51 to 75	76 to 100
O=C(COCc1ccncc1)Nc1nc(-c2ccccn2)nc2sccc12 [drawing 2221]	1 to 25	76 to 100
O=C(COCc1cccnc1)Nc1nc(-c2ccccn2)nc2sccc12 [drawing 2222]	1 to 25	51 to 75
COc1cccc(CC2CN(C(=O)c3csc4c(O)nc(-c5ccccn5)nc34)CCN2)c1 (stereo not drawn) [drawing 2223]	1 to 25	1 to 25
O=C(c1csc2c(O)nc(-c3ccccn3)nc12)N1CCNC(Cc2ccc(F)cc2)C1 (stereo not drawn) [drawing 2224]	1 to 25	26 to 50
COc1ccnc(-c2nc(O)c3c(C(F)(F)F)csc3n2)c1 [drawing 2226]	1 to 25	51 to 75
Nc1nc(-c2ccccn2)nc2ccsc12 [drawing 2227]	1 to 25	0
Nc1nc(-c2ccccn2)nc2c(-c3ccccc3Cl)csc12 [drawing 2228]	1 to 25	76 to 100
Cc1cc2nc(-c3ccccn3)nc(N)c2s1 [drawing 2229]	1 to 25	1 to 25
Cc1sc2c(N)nc(-c3ccccn3)nc2c1-c1ccccc1 [drawing 2230]	1 to 25	51 to 75
O=C(c1csc2c(O)nc(-c3ccccn3)nc12)N1CC2CC1CN2c1ccccc1 (stereo not drawn) [drawing 2231]	0	51 to 75
O=C(c1csc2c(O)nc(-c3ccccn3)nc12)N1CCC(c2ccncc2)C1 (stereo not drawn) [drawing 2232]	1 to 25	76 to 100
O=C(c1csc2c(O)nc(-c3ccccn3)nc12)N1CCC(c2cccc(O)c2)C1 (stereo not drawn) [drawing 2233]	26 to 50	76 to 100
O=C(c1cc2nc(-c3ccccn3)nc(O)c2s1)N1CCN(c2ccccc2)CC1 [drawing 2234]	0	26 to 50
O=C(c1cc2nc(-c3ccccn3)nc(O)c2s1)N1CCOC(c2ccccc2)C1 (stereo not drawn) [drawing 2235]	1 to 25	1 to 25
O=C(NCCc1cccnc1)c1cc2nc(-c3ccccn3)nc(O)c2s1 [drawing 2236]	1 to 25	26 to 50
Cc1ccc(OC2CCCC2)c(-c2csc3c(O)nc(-c4ccccn4)nc23)c1 [drawing 2237]	51 to 75	76 to 100
